Test results: patent US20210139610A1, “COMPOSITIONS AND METHODS FOR MEDIATING EPS” (priority 2018, published 2021)
“Also recorded” adds a separate entry of the source.

What was measured:
[1] = test system: Z-DNA and B-DNA in the NTHI biofilm extracellular matrix; test: Immunofluorescence CLSM for Z-DNA / B-DNA in NTHI biofilms; format: cell-based, Non-typeable Haemophilus influenzae; details: HMGB1 treatment at 24 h, read at 40 h
Procedure: FIG. 31: DNase degrades B-DNA, but not Z-DNA, within the biofilm extracellular matrix. DNase (Pulmozyme; 5 units) was added at 24 h after biofilm seeding to in vitro pre-formed NTHI biofilms.
FIG. 37: HMGB1 destabilizes Z-DNA structures in the biofilm extracellular matrix. Non-typeable Haemophilus influenzae biofilms were grown in supplemented BHI media in 8 well chambered coverglass slides at 37° C. and 5% CO2. After 24 h, biofilms were treated as indicated above. After 40 h, biofilms were washed, probed with primary antibodies directed against Z-DNA (light gray dots), a fluorescent secondary antibody, stained with DAPI (gray regions), and visualized via fluorescence microscopy.
FIGS. 50A-50B: Equilibrium shift of B-DNA to Z-DNA conversion alters biofilm formation. NTHI biofilms formed for 24 h were incubated with cerium chloride (CeCl3) or chloroquine for an additional 16 h and were probed with naive or anti-Z-DNA (white) by immunofluorescence CLSM.
FIGS. 51A-51B: Equilibrium shift of B-DNA to Z-DNA conversion alters biofilm formation. NTHI biofilms formed for 24 h were incubated with cerium chloride (CeCl3) (FIG. 51A) or chloroquine (FIG. 51B) for an additional 16 h. Z-DNA was measured by IF and CLSM using anti-Z-DNA and cells were stained with the membrane stain FM4-64. Bars represent the SEM. Statistical significance compared to control was assessed by paired t-tests, *P<0.05, **P<0.01.

poly(dG-dC) substrate = poly(dG-dC) substrate nuclease degradation (gel electrophoresis); format: biochemical; details: in presence of protective concentrations of spermidine/polyamines
Procedure: FIG. 32: Z-DNA formation protects DNA from nuclease degradation. A poly(dG-dC) substrate was incubated with salt activated nuclease (SAN) or DNase I in increasing concentrations of NaCl, spermine, or spermidine as indicated above. Degradation products were visualized by gel electrophoresis. High salt and polyamines protect DNA from degradation through conversion to the Z-DNA form.
FIGS. 34A-34B: DNABII proteins protect DNA by shifting to Z-DNA form. (FIG. 34A) A poly(dG-dC) substrate was incubated with DNase I in increasing concentrations of NTHi HU as indicated above. Degradation products were visualized by gel electrophoresis. […] (FIG. 34B) Top: Circular dichroism spectrum of a B-DNA substrate being converted to Z-DNA by increasing concentrations of a Z-DNA catalyst (adapted from Rahmouni (1992) Mol Microbiol. 6(5):569-72). Note inversion of negative peak around 250 nm and positive peak around 280 nm. Bottom: Poly(dGdC) DNA (5 μg) was incubated with HU (15 μM) for 2 h and CD spectra collected.
FIG. 41: HMGB1 reverts polyamine-induced Z-DNA to a nuclease sensitive B-DNA state. A poly(dG-dC) substrate was incubated with spermidine and HMGB1. Degradation products were visualized by gel electrophoresis.

DNABII proteins = DNABII proteins in NTHI biofilm and culture media (immunofluorescence, Western blot); format: cell-based, Non-typeable Haemophilus influenzae; details: HMGB1 treatment at 24 h, read at 40 h
Procedure: FIGS. 38A-38C: HMGB1 displaces DNABII proteins thereby disrupting NTHI biofilms. Non-typeable Haemophilus influenzae biofilms were grown in supplemented BHI media in 8 well chambered coverglass slides at 37° C. and 5% CO2. After 24 h, biofilms were treated as indicated. (FIG. 38A) After 40 h, biofilms were washed, probed with primary antibodies directed against DNABII proteins (light gray dots), a fluorescent secondary antibody, stained with DAPI (gray regions), and visualized via fluorescence microscopy. (FIG. 38B) Media from biofilm cultures was collected and analyzed via Western blot with a primary antibody that recognizes DNABII proteins. […] (FIG. 38C) COMSTAT quantification NTHI biofilms stained with LIVE/DEAD® and visualized with confocal microscopy after treatment with 5 mg/mL HMGB1.

[2] = test system: NTHI biofilms in the middle ear; test: Chinchilla model of otitis media due to NTHI, middle ear biofilm scoring; format: in vivo; details: 5 μg to middle ears at 4 and 5 days post infection, scored 24 h later
Procedure: FIGS. 39A-39B: HMGB1 promotes biofilm resolution in an experimental model (chinchilla host) of OM. Diluent or 5 μg rHMGB1 or mHMGB1 were delivered directly to middle ears of chinchillas at 4 and 5 days post infection with NTHI. Animals were sacrificed 24 h later, and their middle ears were imaged (FIG. 39A) and blindly scored (FIG. 39B) based on the criteria described in the bottom of (FIG. 39A). Bars represent SEM. ***P<0.001.

B. cenocepacia biofilms = test: Burkholderia cenocepacia in vitro biofilm disruption (COMSTAT); format: cell-based; details: 5 mg/mL HMGB1 at 24 h, total 40 h
Procedure: (§1) (FIG. 40A) B. cenocepacia biofilms were grown in LB media in 8 well chambered coverglass slides at 37° C. and 5% CO2. After 24 h, biofilms were treated 5 mg/mL HMGB1. After a total of 40 h, biofilms were stained with LIVE/DEAD®, visualized via CLSM and analyzed by COMSTAT. Bars represent the SEM. (FIG. 40B) C57BL/6 mice were infected with 10^7 CFU i.t., and simultaneously received 5 mg rHMGB1 or mHMGB1, a C45 S non-inflammatory variant. Aggregates of B. cenocepacia were visible by fluorescence microscopy in sections probed with an α-B. cenocepacia antibody (gray). After 18 h, (FIG. 40C) CFUs were quantified in BAL. Bars represent SD. *P<0.05, ***P<0.001.

B. cenocepacia = test: Mouse lung infection with B. cenocepacia (aggregates, CFU in BAL); format: in vivo, C57BL/6 mice; details: 10^7 CFU i.t. with simultaneous 5 mg rHMGB1 or mHMGB1, 18 h
Procedure: as §1

preformed NTHI biofilms = test: Disruption of pre-formed NTHI biofilms (treatment after initial growth; LIVE/DEAD, CLSM, COMSTAT); format: cell-based, Non-typeable Haemophilus influenzae; details: 5 mg/mL HMGB1, treated at 24 h
[3] = test system: Non-typeable Haemophilus influenzae biofilms; test: NTHI in vitro biofilm formation, additive present from seeding (LIVE/DEAD, CLSM, COMSTAT); format: cell-based; details: for NTHI biofilm formation (average thickness, biomass): DCHA 50 μM
Procedure: FIG. 14: Non-typeable Haemophilus influenzae biofilms were grown for 40 h in supplemented BHI medium containing additives as indicated below each bar in 8 well chambered coverglass slides at 37° C. and 5% CO2. Biofilms were washed, stained with LIVE/DEAD®, fixed, and imaged by CLSM. Biofilm parameters were quantified using COMSTAT software.
Dicyclohexylamine inhibits spermidine synthase via a competitive inhibition mechanism, i.e. through binding to the same site on the protein as the putrescine substrate. Applicants therefore hypothesized that dicyclohexylamine would inhibit NTHi biofilm development. […]

[4] = test system: Non-typeable Haemophilus influenzae; test: NTHI growth (absorbance at 490 nm, colony-forming units); format: cell-based; details: 16 h, supplemented BHI, up to 10 mM
Procedure: FIG. 13: Non-typeable Haemophilus influenzae were grown for 16 h in supplemented BHI media containing additives as indicated above in 96 well plates at 37° C. and 5% CO2. Growth was quantified by spectrophotometric absorbance at 490 nm (left) and by enumeration of colony-forming units (right).
(§2) Dicyclohexylamine inhibits spermidine synthase via a competitive inhibition mechanism, i.e. through binding to the same site on the protein as the putrescine substrate. Applicants therefore hypothesized that dicyclohexylamine would inhibit NTHi biofilm development.

[5] = test system: spermidine in the NTHI biofilm matrix; test: Immunofluorescence for spermidine in NTHI biofilm matrix; format: cell-based, Non-typeable Haemophilus influenzae; details: grown 40 h in presence of DCHA
Procedure: FIG. 15: Non-typeable Haemophilus influenzae biofilms were grown for 40 h in supplemented BHI media containing additives as indicated above in 8 well chambered coverglass slides at 37° C. and 5% CO2. Biofilms were washed, probed with primary antibodies directed towards spermidine, a fluorescent secondary antibody (dark gray dots), and stained with DAPI (gray regions).
as §2

[6] = test system: spermidine levels in UPEC biofilms; format: cell-based
[7] = test system: eDNA scaffold structure of NTHI biofilms; test: eDNA scaffold structure in early (3 h) NTHI biofilms, dsDNA immunofluorescence; format: cell-based, Non-typeable Haemophilus influenzae; details: DCHA 50 μM
Procedure: FIGS. 3A-3C: Polyamine synthesis inhibitor reduces biofilm formation. (FIG. 3A) COMSTAT quantification of LIVE/DEAD® stained NTHI biofilms grown in the presence of dicyclohexylamine (DCHA, 50 μM), a spermidine (Spd) synthase inhibitor, Spd (1 mM), or both. Bars represent the SEM. Statistical significance compared to control was assessed by unpaired t-tests, *P<0.05. […] (FIG. 3B) Immunofluorescence microscopy images of eDNA scaffold structure in NTHI in vitro biofilms grown for 3 h in the presence of DCHA (50 μM). […] (FIG. 3C) Immunofluorescence CLSM images of NTHI in vitro biofilms grown for 40 h in the presence of DCHA. Probed for Spd (white dots in FIG. 3C lower panel) and counterstained with DAPI (gray regions).
FIG. 16: Surface attached non-typeable Haemophilus influenzae were grown for 3 h in supplemented BHI media containing additives as indicated above in Fluorodish coverglass dishes at 37° C. and 5% CO2. Biofilms were washed, probed with primary antibodies directed towards double stranded DNA and a fluorescent secondary antibody (white).
as §2

[8] = 50 μM dicyclohexylamine, 40 h, COMSTAT
[9] = listed as Dicyclohexylamine (DCHA)
[10] = listed as dicyclohexylamine (DCHA)
[11] = listed as spermidine synthase inhibitor

Compound: HMGB1: high mobility group box 1 protein, eukaryotic chromatin protein of 215 amino acids
- Z-DNA content of NTHI biofilm matrix [1]: diminished Z-DNA content; also recorded: reduced Z-DNA structures in the biofilm matrix
- nuclease sensitivity of poly(dG-dC) substrate (poly(dG-dC) substrate): restored nuclease sensitivity to spermidine-induced Z-DNA substrates
- DNABII proteins in / released from the biofilm matrix (DNABII proteins): DNABII proteins were released from the biofilm; also recorded: displaced DNABII proteins from the biofilm matrix
- resolution of middle ear NTHI biofilms [2]: efficient resolution of adherent biofilms; also recorded: promoted clearance of pre-existing NTHI biofilms in situ
- B. cenocepacia biofilm disruption in vitro (B. cenocepacia biofilms): effective at disrupting biofilms formed in vitro by Burkholderia cenocepacia; also recorded: disrupts Burkholderia cenocepacia biofilms
- B. cenocepacia aggregate biofilm in lungs (B. cenocepacia): prevented B. cenocepacia aggregate biofilm formation in the lungs of mice; also recorded: significantly disrupts B. cenocepacia biofilms in situ
- NTHI biofilm disruption (preformed NTHI biofilms): significant biofilm disruption; also recorded: disrupts biofilms by displacing DNABII proteins

Compound: C1CCC(NC2CCCCC2)CC1 [dicyclohexylamine]
- biofilm roughness ([3]; 50 μM dicyclohexylamine, 40 h): increasing biofilm roughness
- reduction of biofilm biomass [3, 8]: approximately 40%
- reduction of biofilm thickness [3, 8]: approximately 40%
- NTHI biofilm formation (average thickness, biomass) [3]: significantly inhibited NTHi biofilm formation
- NTHI biofilm formation (average thickness, biomass) ([3]; listed as DCHA): inhibited biofilm biogenesis in vitro, decreasing average thickness and biomass; also recorded: Average thickness of biofilms was decreased
- NTHI biofilm formation (average thickness, biomass) ([3]; listed as Dicyclohexylamine): inhibited biofilm biogenesis
- NTHI biofilm formation (average thickness, biomass) [3, 9]: significantly decreased average thickness compared to sBHI control
- NTHI biofilm formation (average thickness, biomass) [3, 10]: a significant decrease in biofilm average thickness
- NTHi growth [4]: did not affect NTHi growth up to 10 mM
- NTHi growth ([4]; listed as DCHA): did not affect NTHI growth
- NTHi growth [4, 11]: did not affect normal growth
- spermidine / polyamine presence in NTHI biofilm matrix [5]: statistically significant corresponding decrease in spermidine present in the biofilm matrix
- spermidine / polyamine presence in NTHI biofilm matrix ([5]; listed as DCHA): reduced extracellular polyamine incorporation into the biofilm EPS; also recorded: inhibits polyamine incorporation into the biofilm EPS
- spermidine / polyamine presence in NTHI biofilm matrix [5, 9]: reduces spermidine levels in NTHI and UPEC biofilms
- spermidine / polyamine presence in NTHI biofilm matrix [5, 10]: an overall decrease in spermidine levels as measured by IF
- spermidine / polyamine presence in NTHI biofilm matrix [5, 11]: reduced spermidine presence in the biofilm matrix
- spermidine levels in UPEC biofilms [6]: reduces spermidine levels in NTHI and UPEC biofilms
- eDNA scaffold structure amount and complexity ([7]; listed as DCHA): inhibited production of the eDNA scaffold; also recorded: eDNA scaffold structure production is greatly reduced
- eDNA scaffold structure amount and complexity ([7]; listed as Dicyclohexylamine): reduced the amount and the complexity of eDNA scaffold structures
- eDNA scaffold structure amount and complexity [7, 11]: reduced both the presence and complexity of the extracellular DNA structure
